According to PMC4069099, “Pharmacological Validation of an Inward-Rectifier Potassium (Kir) Channel as an Insecticide Target in the Yellow Fever Mosquito Aedes aegypti” (PLoS ONE, 2014):

Tests used:
Type in all cases: cell-based
[1] = target: T1, AeKir1 (Aedes aegypti, UniProt L0EQS9); test: two-electrode voltage clamp in Xenopus oocytes, inhibition of inward current at […]
T1 sequence (L0EQS9 1-486): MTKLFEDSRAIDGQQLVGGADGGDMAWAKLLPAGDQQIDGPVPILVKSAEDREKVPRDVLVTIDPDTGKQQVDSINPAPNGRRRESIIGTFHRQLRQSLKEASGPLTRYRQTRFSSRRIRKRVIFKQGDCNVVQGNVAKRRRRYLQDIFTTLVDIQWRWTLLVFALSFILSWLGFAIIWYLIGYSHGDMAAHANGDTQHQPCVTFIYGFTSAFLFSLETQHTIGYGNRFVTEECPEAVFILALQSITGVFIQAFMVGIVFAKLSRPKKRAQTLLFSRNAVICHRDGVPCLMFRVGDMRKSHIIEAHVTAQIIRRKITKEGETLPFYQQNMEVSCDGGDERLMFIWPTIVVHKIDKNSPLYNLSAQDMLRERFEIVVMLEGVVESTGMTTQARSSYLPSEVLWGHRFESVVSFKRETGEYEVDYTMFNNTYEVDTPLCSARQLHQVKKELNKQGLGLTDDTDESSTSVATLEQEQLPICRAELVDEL

[2] = target: T2, AeKir2B (Aedes aegypti, UniProt L0EQ40); test: two-electrode voltage clamp in Xenopus oocytes, activation of inward current at […]
T2 sequence (L0EQ40 1-489): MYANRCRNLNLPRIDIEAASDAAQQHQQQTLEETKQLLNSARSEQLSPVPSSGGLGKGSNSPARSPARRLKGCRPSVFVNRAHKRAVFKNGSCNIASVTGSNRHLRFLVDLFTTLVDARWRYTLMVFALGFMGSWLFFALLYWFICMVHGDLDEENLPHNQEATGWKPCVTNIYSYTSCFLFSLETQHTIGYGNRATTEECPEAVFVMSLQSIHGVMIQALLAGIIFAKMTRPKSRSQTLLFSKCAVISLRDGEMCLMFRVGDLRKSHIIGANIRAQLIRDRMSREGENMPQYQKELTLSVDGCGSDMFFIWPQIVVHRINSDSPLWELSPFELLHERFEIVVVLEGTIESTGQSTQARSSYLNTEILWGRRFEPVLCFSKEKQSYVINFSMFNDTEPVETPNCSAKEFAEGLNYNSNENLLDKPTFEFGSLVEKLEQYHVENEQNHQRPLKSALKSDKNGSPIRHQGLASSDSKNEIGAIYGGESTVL

[3] = target: T1, AeKir1; test: Tl+-flux assay in T-REx-HEK293 cells expressing AeKir1; also two-electrode voltage clamp in Xenopus oocytes ([…], […] block)

Structure (SMILES)	% inhibition at 50 μM [1]	% activation at 50 μM [2] [% activation at 50 µM]	IC50 [3] [µM]
Cc1ccc(OCC(O)Cn2c(=N)n(Cc3ccccc3)c3ccccc32)cc1 (stereo not drawn) [VU573]	~ 50	> 50	–
O=[N+]([O-])c1ccc(CN2CCOCCOCCN(Cc3ccc([N+](=O)[O-])cc3)CCOCC2)cc1 [VU590]	–	–	5.6
